Measured values from publication PMC12219075 (Scientific Reports, 2025).

Target: Proto-oncogene tyrosine-protein kinase Src (SRC) (Homo sapiens, UniProt P12931)
Assay: mobility shift kinase assay
Format: biochemical

Chain of Proto-oncogene tyrosine-protein kinase Src (SRC) (P12931 2-536): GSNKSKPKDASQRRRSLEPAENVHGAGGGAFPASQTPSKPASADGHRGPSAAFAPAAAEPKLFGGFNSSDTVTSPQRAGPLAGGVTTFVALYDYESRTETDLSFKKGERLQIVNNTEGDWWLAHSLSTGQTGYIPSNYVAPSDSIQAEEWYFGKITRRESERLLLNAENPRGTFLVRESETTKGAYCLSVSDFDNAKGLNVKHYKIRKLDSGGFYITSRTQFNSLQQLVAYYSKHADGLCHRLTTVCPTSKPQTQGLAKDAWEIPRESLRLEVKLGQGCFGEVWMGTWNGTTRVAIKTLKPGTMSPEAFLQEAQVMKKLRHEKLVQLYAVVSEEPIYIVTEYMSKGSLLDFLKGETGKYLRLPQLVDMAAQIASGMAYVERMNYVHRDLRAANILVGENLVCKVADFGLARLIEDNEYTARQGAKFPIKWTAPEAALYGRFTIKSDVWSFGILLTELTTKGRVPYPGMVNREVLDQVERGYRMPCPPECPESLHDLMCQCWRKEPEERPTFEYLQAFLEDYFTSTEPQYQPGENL

C[C@@H]1CC[C@]2(C(=O)O)CC[C@]3(C)C(=CC[C@@H]4[C@@]5(C)C[C@@H](O)[C@@H](O)C(C)(C)[C@@H]5CC[C@]43C)[C@@H]2[C@]1(C)O [compound 99, 2α,3α,19α-trihydroxyurs-12-en-28-oic acid]
IC50: 22.5 µM

CC1(C)CC[C@]2(C(=O)O)CC[C@]3(C)C(=CC[C@@H]4[C@@]5(C)CC[C@H](O)C(C)(C)[C@@H]5CC[C@]43C)[C@@H]2C1 [compound 116, oleanolic acid]
IC50: 29.9 µM

CC1(C)CC[C@]2(C(=O)O)CC[C@]3(C)C(=CC[C@@H]4[C@@]5(C)C[C@@H](O)[C@H](O)C(C)(C)[C@@H]5CC[C@]43C)[C@@H]2C1 [compound 102, crataegolic acid]
IC50: 26.9 µM
